# Source: publication PMC12059162 (Scientific Reports, 2025)
# Marks after values point to notes of the source that are not given here.
# How the values were obtained:
# MIA PaCa-2 cells [1] = assay: Cell cycle analysis (PI, flow cytometry); settings: MIA PaCa-2, 0.5 µM; for Effect on cell cycle: 48 h
# [2] = alamarBlue cell viability, cardiotoxicity; settings: mouse, HL-1 cardiomyocytes
# A2058 cells = assay: alamarBlue cell viability; settings: Homo sapiens, A2058, 72 h; for IC50: read-out: IC50 values (μM) 72 hours; for viability at 0.5 µM / viability at 10 µM / viability at 25 µM: read-out: Viability (%) after 72-h treatment
# PANC-1 cells [3] = assay: Annexin-V/7AAD early and late apoptosis flow cytometry; assay type: cell-based, human; settings: PANC-1, 0.5 µM, 72 h; for Ratio of late apoptotic cells: control 0.9%; for Ratio of AnnexinV+ and 7AAD- (early apoptotic) cells: control 21.1%
# Method: For apoptosis measurements, Annexin-V positive/7AAD (7-Aminoactinomycin D) negative, early apoptotic and Annexin-V/ 7AAD double positive, late apoptotic cells were differentiated using a BD FACSCalibur (BD FACSCalibur, Becton-Dickinson, San Jose, CA, USA) flow cytometer[49],[50]. […] After 24, 48, and 72 h treatment, cells were harvested with 300 µL TrypLE (Sigma Ltd. St. Louis, MO, USA). Fresh cell culture medium was then added to stop the effect of TrypLE and the harvested cells were centrifuged for 5 min (300 g). Then, the supernatant was removed, and cells were resuspended in 300 µL of Annexin binding buffer (Sony Biotechnology, Weybridge, UK). For labelling, 3–3 µL of Annexin-V-FITC (Sony Biotechnology, Weybridge, UK) and 7AAD (Sony Biotechnology, Weybridge, UK) were added, followed by 10 min incubation at room temperature in the dark. For flow cytometric analysis (BD FACSCalibur, Becton–Dickinson, San Jose, CA, USA), a minimum of 10^4 cells/sample was measured. Annexin-V was detected using the FL-1 channel (530/30), and 7AAD was detected using the FL-3 channel (670 LP). In each treatment group, 3 parallel samples were analysed. The results were evaluated using Flowing Software 2.5.1 (Turku Centre of Biotechnology, Turku, Finland).
# DR5 [4] = assay: qPCR apoptotic gene expression in PANC-1 cells; settings: PANC-1, 25 µM
# p53 = assay: qPCR apoptotic gene expression in PANC-1 cells; settings: PANC-1, 25 µM, normalised to DMSO control
# MIA PaCa-2 cells [5] = assay: alamarBlue cell viability; settings: Homo sapiens, MIA PaCa-2, 72 h; for viability at 0.5 µM / viability at 10 µM / viability at 25 µM: read-out: Viability (%) after 72-h treatment
# phospho-p53 (S46) = assay: Human Apoptosis Array in PANC-1 cells; settings: PANC-1, 0.5 µM, 72 h
# EBC-1 cells = assay: alamarBlue cell viability; settings: for viability at 0.5 µM: read-out: Viability (%) after 72-h treatment, EBC-1, 0.5 μM, 72 h, mean ± SD (n = 3); for viability at 10 µM: read-out: Viability (%) after 72-h treatment, EBC-1, 10 μM, 72 h, mean ± SD (n = 3); for viability at 25 µM: read-out: Viability (%) after 72-h treatment, EBC-1, 25 μM, 72 h, mean ± SD (n = 3)
# PANC-1 cells [6] = assay: xCELLigence SP impedimetric cell viability; settings: for IC50 / viability at 0.5 µM / viability at 10 µM / viability at 25 µM: Homo sapiens, PANC-1, 72 h; for IC50: read-out: IC50 values (μM) 72 hours; for viability at 0.5 µM: read-out: Viability (%) after 72-h treatment, PANC-1, 0.5 μM, 72 h, mean ± SD (n = 3); for viability at 10 µM: read-out: Viability (%) after 72-h treatment, PANC-1, 10 μM, 72 h, mean ± SD (n = 3); for viability at 25 µM: read-out: Viability (%) after 72-h treatment, PANC-1, 25 μM, 72 h, mean ± SD (n = 3)
# PANC-1 cells [7] = assay: Cell cycle analysis (PI, flow cytometry); settings: for Effect on cell cycle: PANC-1, 0.5 µM, 48 h; for Increase in cell number in the G2/M phase: PANC-1, 10 and 25 µM, 72 h
# TRAIL = assay: qPCR apoptotic gene expression in PANC-1 cells; settings: PANC-1, 25 µM
# HSP60 = assay: Human Apoptosis Array in PANC-1 cells; settings: PANC-1, 0.5 µM, 72 h
# pro-caspase-3 = assay: Human Apoptosis Array in PANC-1 cells; settings: PANC-1, 0.5 µM, 72 h
# phospho-p53 (S15) = assay: Human Apoptosis Array in PANC-1 cells; settings: PANC-1, 0.5 µM, 72 h
# COLO-205 cells = assay: alamarBlue cell viability; settings: Homo sapiens, COLO 205, 72 h; for viability at 0.5 µM / viability at 10 µM / viability at 25 µM: read-out: Viability (%) after 72-h treatment
# NHDF cells = assay: alamarBlue cell viability, healthy cells; settings: Homo sapiens, NHDF, 72 h, read-out: IC50 values (μM) 72 hours
# [8] = alamarBlue cell viability, healthy cells; settings: human, NHDF cells
# cIAP-1 = assay: Human Apoptosis Array in PANC-1 cells; settings: PANC-1, 0.5 µM, 72 h
# DR4 = assay: Human Apoptosis Array in PANC-1 cells; settings: PANC-1, 0.5 µM, 72 h
# PANC-1 cells [9] = assay: Holographic microscopy morphometry (HoloMonitor M4); assay type: cell-based, human; settings: 72 h
# Method: To follow the morphometric changes, a holographic transmission microscope (HoloMonitor M4; Phase Holographic Imaging AB, Lund, Sweden) was used, which uses a laser to produce 3D images of the cells[51],[52]. This […] imaging technique allows us to monitor cell morphological changes in real-time. First, the cells were seeded at a concentration of 3.5 × 10^5 cells/flask/4000 µL cell culture medium. […] At least 5 images were taken from each culture dish, taking care to assess different fields of view. These images were evaluated using the microscope software (Hstudio M4). We assessed the average area and the average optical thickness of the cells.
# DR5 [10] = assay: Human Apoptosis Array in PANC-1 cells; settings: PANC-1, 0.5 µM, 72 h
# cytochrome-c = assay: Human Apoptosis Array in PANC-1 cells; settings: PANC-1, 0.5 µM, 72 h
# [11] = read-out: IC50 values (μM) 72 hours
smiles,measurement,setting,value
O=C1C2=C(CCN(Cc3ccccc3)C2)N2CCN=C2N1Cc1ccc(F)cc1 [TBP-134],Effect on cell cycle,MIA PaCa-2 cells [1],strong G2/M phase arrest
same,subG1 phase (percentage of cells),"MIA PaCa-2 cells [1]; 72 h, control 5.6%",20.8%
same,"viability at 72 h, 0.5 µM",[2],89.9 ± 5.2%
same,"viability at 72 h, 10 µM",[2],88.4 ± 5%
same,"viability at 72 h, 25 µM",[2],82 ± 2.3%
same,IC50,A2058 cells,0.34 µM
same,viability at 0.5 µM,A2058 cells,51.4 ± 2.4%
same,viability at 10 µM,A2058 cells,47.7 ± 3.5%
same,viability at 25 µM,A2058 cells,44.7 ± 2.8%
same,"Early apoptotic cells, fold increase",PANC-1 cells [3],2.1 fold
same,"Late apoptotic cells, fold increase",PANC-1 cells [3],4.2 fold
same,Ratio of late apoptotic cells,PANC-1 cells [3],3.8%
same,Ratio of AnnexinV+ and 7AAD- (early apoptotic) cells,PANC-1 cells [3],43.8%
same,DR5 mRNA expression,"DR5 [4]; 12 h, normalised to DMSO control",2.3 fold
same,p53 mRNA expression,p53; 48 h,3.7 fold
same,IC50,MIA PaCa-2 cells [5]; [11],0.67 µM
same,viability at 0.5 µM,MIA PaCa-2 cells [5],48.9 ± 2.9%
same,viability at 10 µM,MIA PaCa-2 cells [5],65 ± 4.9%
same,viability at 25 µM,MIA PaCa-2 cells [5],59 ± 5.5%
same,phospho-p53 (S46) protein level,phospho-p53 (S46),decrease
same,Viability (%) after 72-h treatment,"EBC-1 cells; EBC-1, 0.5 μM, 72 h, mean ± SD (n = 3), 0.5 µM",52.3 ± 1.5^z %
same,viability at 0.5 µM,"EBC-1 cells; Homo sapiens, EBC-1, 72 h",52.2%
same,viability at 10 µM,"EBC-1 cells; Homo sapiens, EBC-1, 72 h",51.7 ± 0.7%
same,viability at 25 µM,"EBC-1 cells; Homo sapiens, EBC-1, 72 h",50.5 ± 2%
same,IC50,PANC-1 cells [6],0.35 µM
same,viability at 0.5 µM,PANC-1 cells [6],13.4%
same,viability at 10 µM,PANC-1 cells [6],7.4 ± 0.3%
same,viability at 25 µM,PANC-1 cells [6],6.1 ± 0.9%
same,Viability (%) after 72-h treatment,"PANC-1 cells [6]; PANC-1, 0.5 μM, 72 h, mean ± SD (n = 3), 0.5 µM",13.2 ± 1.4^z %
same,Effect on cell cycle,PANC-1 cells [7],strong G2/M phase arrest
same,Increase in cell number in the G2/M phase,PANC-1 cells [7],2.2 fold
same,TRAIL induction (mRNA),TRAIL; any of the time points (3-48 h),not detected
same,HSP60 protein level,HSP60,significant increase
same,pro-caspase-3 protein level,pro-caspase-3,decrease
same,phospho-p53 (S15) protein level,phospho-p53 (S15),decrease
same,IC50,COLO-205 cells; [11],0.25 µM
same,viability at 0.5 µM,COLO-205 cells,45.5 ± 1.3%
same,viability at 10 µM,COLO-205 cells,48.8 ± 1.6%
same,viability at 25 µM,COLO-205 cells,54.3 ± 0.6%
same,IC50,NHDF cells,1.55 µM
same,"viability at 72 h, 0.5 µM",[8],61.5 ± 0.5%
same,"viability at 72 h, 10 µM",[8],46.2 ± 3.4%
same,"viability at 72 h, 25 µM",[8],48.3 ± 1.2%
same,cIAP-1 protein level,cIAP-1,undetectable
same,DR4 protein level,DR4,significant increase
same,Average cell area,"PANC-1 cells [9]; PANC-1, 25 µM",376 µm^2
same,"Average cell area, fold decrease vs DMSO","PANC-1 cells [9]; PANC-1, 25 µM",1.7 fold
O=C1C2=C(CCN(Cc3ccccc3)C2)N2CCN=C2N1Cc1cccc(F)c1 [TBP-135],Effect on cell cycle,MIA PaCa-2 cells [1],did not affect
same,"viability at 72 h, 0.5 µM",[2],98.8 ± 1.5%
same,"viability at 72 h, 10 µM",[2],86.8 ± 3.2%
same,"viability at 72 h, 25 µM",[2],88.3 ± 2.8%
same,DR5 protein level,DR5 [10],significantly increased
same,IC50,A2058 cells,1.75 µM
same,viability at 0.5 µM,A2058 cells,74.9 ± 1.1%
same,viability at 10 µM,A2058 cells,47 ± 4.7%
same,viability at 25 µM,A2058 cells,46.8 ± 2.9%
same,"Early apoptotic cells, fold increase",PANC-1 cells [3],2.5 fold
same,"Late apoptotic cells, fold increase",PANC-1 cells [3],3.5 fold
same,Ratio of late apoptotic cells,PANC-1 cells [3],3.2%
same,Ratio of AnnexinV+ and 7AAD- (early apoptotic) cells,PANC-1 cells [3],53.5%
same,cytochrome-c protein level,cytochrome-c,significantly decreased
same,DR5 mRNA expression,DR5 [4]; 3 h,significantly upregulated
same,DR5 mRNA expression,"DR5 [4]; 24 h, normalised to DMSO control",5.9 fold
same,p53 mRNA expression,p53; 24 h,2.9 fold
same,viability at 0.5 µM,MIA PaCa-2 cells [5],63.5 ± 2.6%
same,viability at 10 µM,MIA PaCa-2 cells [5],62.7 ± 7.8%
same,viability at 25 µM,MIA PaCa-2 cells [5],65.5 ± 7.9%
same,phospho-p53 (S46) protein level,phospho-p53 (S46),significantly increased
same,IC50,"EBC-1 cells; Homo sapiens, EBC-1, 72 h, read-out: IC50 values (μM) 72 hours",2.5 µM
same,viability at 0.5 µM,"EBC-1 cells; Homo sapiens, EBC-1, 72 h",66.6 ± 4.1%
same,viability at 10 µM,"EBC-1 cells; Homo sapiens, EBC-1, 72 h",71.8 ± 31.1%
same,viability at 25 µM,"EBC-1 cells; Homo sapiens, EBC-1, 72 h",48 ± 4%
same,IC50,PANC-1 cells [6],1.8 µM
same,viability at 0.5 µM,PANC-1 cells [6],106 ± 2.4%
same,viability at 10 µM,PANC-1 cells [6],8.8 ± 0.1%
same,viability at 25 µM,PANC-1 cells [6],9.2 ± 4.6%
same,Effect on cell cycle,PANC-1 cells [7],G1 phase block
same,Increase in cell number in the G2/M phase,PANC-1 cells [7],2.2 fold
same,TRAIL mRNA expression,"TRAIL; 3 h, normalised to DMSO control",2.4 fold
same,HSP60 protein level,HSP60,significantly increased
same,pro-caspase-3 protein level,pro-caspase-3,significantly increased
same,phospho-p53 (S15) protein level,phospho-p53 (S15),significantly increased
same,viability at 0.5 µM,COLO-205 cells,74.7 ± 0.6%
same,viability at 10 µM,COLO-205 cells,52.6 ± 4.1%
same,viability at 25 µM,COLO-205 cells,54.2 ± 3.2%
same,"viability at 72 h, 0.37 µM",[8],111 ± 2.9%
same,"viability at 72 h, 8.6 µM",[8],65.9 ± 1.8%
same,"viability at 72 h, 25 µM",[8],71.4 ± 12.3%
same,cIAP-1 protein level,cIAP-1,significantly increased
same,DR4 protein level,DR4,significantly increased
same,"Average cell area, fold decrease vs DMSO","PANC-1 cells [9]; PANC-1, 0.5 µM",1.9 fold
same,"Average optical thickness, fold increase vs DMSO","PANC-1 cells [9]; PANC-1, 0.5 µM",4.1 fold
same,Average optical thickness,"PANC-1 cells [9]; PANC-1, 0.5 µM, DMSO 1.45 μm",5.9 μm
same,Average cell area,"PANC-1 cells [9]; PANC-1, 0.5 µM, DMSO 630 µm^2",338.5 µm^2
